Experimental data from patent EP1247803A2, “Indolinone compounds suitable for modulation of protein kinases” (Sugen, Inc., priority 1996, dated 1998).

Legend:
EGFR = target: T1, EGFR (Homo sapiens, UniProt P00533); assay: EGFR ELISA assay (in vitro kinase activity, EGFR captured from A431 cell lysate); type: biochemical; design: concentration or dose not given beside the values
T1 construct: Add 7 ug A431 cell lysate per well (EGFR source); endogenous in cells; host or cells: A431
From the text: To provide a consistent method for measuring the in vitro kinase activity of the EGFR in an Enzyme-linked immunosorbent assay (Elisa).
Scope. The following protocol describes the procedures used to analyze protein tyrosine kinase activity on the EGFR in an Elisa. The procedure also describes the protocol for the initial screening of drugs for inhibition or activation of protein tyrosine kinase activity.
Reagents and Supplies. • 1. […] 05-101 monoclonal anti-EGFR antibody (commercially available from UB1) -80° C, 1 ml aliquots • 3. […] TBST Buffer Formulation: 50 mM Tris pH 7.2 150 mM NaCl 0.1% Triton X-100 • 5. Blocking Buffer Formulation: 5% Carnation Instant Milk in PBS • 6. A431 cell lysate A431 cells are available from a variety of commercial sources and may be used lysed using conventional methods known to those skilled in the art or as described for lysis of the 3T3 cells in the EGF cellular assay described herein. -80° C, 1 ml aliquots • 7. TBS Buffer Formulation: 50 mM Tris pH 7.2 150 mM NaCl • 8. […] NUNC 96-well V bottom polypropylene plates Applied Scientific Catalog # AS-72092 • 11. EDTA Formulation: 200 mM EDTA pH 8.0 • 12. […] Goat anti-rabbit IgG peroxidase conjugate Biosource Catalog # ALI0404 • 14. ABTS Solution Formulation: 100 mM Citric Acid (anhydrous) 250 mM Na2HPO4 pH 4.0 0.5 mg/ml ABTS (2,2'-azino-bis(3-ethylbenzthiazoline-6-sulfonic acid) (Sigma Catalog # A-1888) Keep solution in dark at 4 C until ready to use • 15. Hydrogen peroxide 30% solution Fisher Catalog # H325 Store in the dark at 4 C until ready to use • 16. ABTS/H2O2 Formulation: 15 mls ABTS solution 2 ul H2O2 Prepare 5 minutes before use and room temperature • 17. 0.2 M HCL stock in H2O Procedure. • 1. Coat Corning 96-well elisa plates with 0.5 ug per well 05-101 antibody. Bring final volume to 100 ul per well with PBS. Coat plates overnight at 4° C. • 2. Remove unbound 05-101 from wells by inverting plate to remove liquid. Wash 1x with distilled H2O by filling wells Pat the plate on a paper towel to remove excess liquid. • 3. Block plates with 5% milk in PBS. 150 ul per well. Incubate plate 30 minutes while shaking on a microtiter plate shaker. • 4. Wash plate 3x with dionized water, then once with TBST • 5. Add 7 ug A431 cell lysate per well (EGFR source). Add PBS to final volume of 100 ul per well Incubate 30 minutes while shaking. • 6. Wash as described in step 4. • 7. At this point, drugs or extracts are added to the wells. Dilute drugs/extracts 1:100 (unless specified otherwise) in TBS + 10% DMSO in 96-well polypropylene plates. Add 120 ul TBS to ELISA plate containing captured EGFR. Add 13.5 ul diluted drugs/extracts to ELISA plate. […] Incubate plate 30 minutes while shaking. • 8. […] (150 ul final volume in well with 3 uM ATP/5 mM MnCl2 final concentration in well.) Incubate 5 minutes while shaking vigorously. *NOTE: It is critical that ATP/MnCl2 phosphorylates the receptor for 5 minutes only. It is best to add the ATP/MnCl2 with an 12 channel pipettor 1 row at a time leaving 20 seconds between each row so that the reaction may be stopped with EDTA exactly 5 minutes later (this depends on the number of plates being phosphorylated in one batch). Shake between each addition. • 9. After 5 minutes, to stop reaction, add 16.5 ul of 200 mM EDTA pH 8.0 for 20 mM final in well, shaking continuously between each addition. This is done using the same timing method as above. After last row has received EDTA, shake plate an additional minute. • 10. Wash 4x with deionized water, twice with TBST. • 11. Add rabbit polyclonal anti-phosphotyrosine serum. Dilute 1:3000 in TBST. Add 100 ul per well. Incubate 30-45 minutes while shaking. • 12. Wash as described above in step 4. • 13. Add BioSource anti-rabbit peroxidase conjugate antibody. Dilute 1:2000 in TBST. Add 100 ul per well. Incubate 30 minutes while shaking. • 14. Wash as described in step 4. • 15. Add 100 ul of ABTS/H2O2 solution to well. Incubate 5 to 10 minutes while shaking. Remove bubbles • 16. […]

MET = MET biochemical kinase assay; design: species or system human; concentration or dose not given beside the values
From the text: A met biochemical kinase assay may be performed for met generally as described above for other kinases by substituting that or the other kinases. In particular, ELISA plates are coated with goat anti-rabbit Fc antibodies, which are used to capture commercially available (from Santa Cruz Biotechnology) rabbit polyclonal antibodies to the cytoplasmic domain of human MET. […] The chimeric receptors, or MET, from these lysates are captured on the antibody coated plates. After washing away extraneous proteins, test compounds are added and an in vitro kinase assay is performed by addition of an appropriate kinase buffer (containing ATP, divalent metal ions, etc.). Incorporation of phosphate into the captured receptors is detected with an anti-phosphotyrosine antibody conjugate with horse radish peroxidase using TMB as a substrate for colorimetric detection.

T1 sequence (P00533 25-1210): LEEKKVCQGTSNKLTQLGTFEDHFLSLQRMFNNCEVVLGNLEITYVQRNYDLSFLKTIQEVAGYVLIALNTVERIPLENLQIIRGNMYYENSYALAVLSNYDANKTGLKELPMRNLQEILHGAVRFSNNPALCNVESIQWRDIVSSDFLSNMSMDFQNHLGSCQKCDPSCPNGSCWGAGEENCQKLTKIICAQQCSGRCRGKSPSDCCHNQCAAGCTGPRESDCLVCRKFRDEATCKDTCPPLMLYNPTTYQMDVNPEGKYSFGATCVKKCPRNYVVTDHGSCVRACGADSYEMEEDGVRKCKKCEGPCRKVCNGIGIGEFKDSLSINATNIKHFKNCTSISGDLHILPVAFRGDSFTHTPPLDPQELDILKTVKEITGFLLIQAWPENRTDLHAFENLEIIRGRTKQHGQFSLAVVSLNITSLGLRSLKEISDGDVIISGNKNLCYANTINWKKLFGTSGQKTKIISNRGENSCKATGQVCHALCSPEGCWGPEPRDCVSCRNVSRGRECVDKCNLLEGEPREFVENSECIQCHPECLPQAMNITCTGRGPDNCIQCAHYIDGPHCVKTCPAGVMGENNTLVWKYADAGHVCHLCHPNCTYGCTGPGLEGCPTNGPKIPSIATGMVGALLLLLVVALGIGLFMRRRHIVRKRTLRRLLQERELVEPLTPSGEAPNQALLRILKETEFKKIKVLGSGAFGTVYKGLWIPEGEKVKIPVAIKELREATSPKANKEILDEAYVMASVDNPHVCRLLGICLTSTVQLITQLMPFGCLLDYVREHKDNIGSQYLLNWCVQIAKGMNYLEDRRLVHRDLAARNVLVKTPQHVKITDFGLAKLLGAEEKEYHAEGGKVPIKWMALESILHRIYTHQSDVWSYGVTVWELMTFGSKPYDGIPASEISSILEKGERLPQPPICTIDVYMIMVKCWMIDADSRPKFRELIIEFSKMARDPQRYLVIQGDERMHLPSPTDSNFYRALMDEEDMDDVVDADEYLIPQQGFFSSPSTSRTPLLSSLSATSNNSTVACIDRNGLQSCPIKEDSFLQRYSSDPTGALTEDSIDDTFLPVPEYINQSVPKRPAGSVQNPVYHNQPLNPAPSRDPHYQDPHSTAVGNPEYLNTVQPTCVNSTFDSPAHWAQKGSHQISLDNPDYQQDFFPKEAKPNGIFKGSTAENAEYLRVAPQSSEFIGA

| SMILES | Biochem EGFR %Inhibition (EGFR) [%] | Met Kinase % Inhibition (MET) [%] |
| --- | --- | --- |
| Cc1c(Br)ccc2c1C(=Cc1cc(Br)c(OCc3ccccc3)c(C(C)(C)C)c1)C(=O)N2 [10732/C08] | 1.6 | 54.5 |
| CCn1c2ccccc2c2cc(C=C3C(=O)Nc4ccc(CCCl)cc43)ccc21 [10731/G02] | 4.7 | 15.2 |
| COc1c(Cl)cc(C=C2C(=O)Nc3ccc(Br)c(C)c32)cc1C(C)(C)C [10732/C09] | -3.9 | 37.9 |
| CC(C)(C)c1cc(C=C2C(=O)Nc3c(Br)cc(Br)cc32)cc(Cl)c1OCc1ccccc1 [10732/A10] | 6.1 | 20.3 |
